In a compilation of properties of binary mixtures (doi:10.1007/s10953-020-00968-2):

Experiment: xn = mol fraction of the nth substance listed
Conditions: 101 kPa

O + CS(=O)(=O)[O-].C[N+](C)(CCO)CCO
x2 = 0
Conditions | viscosity [mPa·s]
298.15 K | 0.877
303.15 K | 0.789
313.15 K | 0.654

CS(=O)(=O)[O-].C[N+](C)(CCO)CCO + O
viscosity [mPa·s]
Conditions | x1 = 0.0989 | x1 = 0.1991 | x1 = 0.2989 | x1 = 0.3971 | x1 = 0.4797 | x1 = 0.5983 | x1 = 0.6984 | x1 = 0.7942 | x1 = 0.8928 | x1 = 1
298.15 K | 4.55 | – | 36.9 | 77.5 | 148 | 288 | 460 | 796 | 1034 | 1495
303.15 K | 3.91 | 12.42 | – | 60.6 | 113 | 212 | – | 558 | 718 | 1021
308.15 K | 3.45 | 10.56 | 24.6 | 48.3 | 78.7 | 160 | 246 | 403 | 510 | 716
313.15 K | 3.06 | 9.06 | 20.5 | 39 | – | 123.5 | – | 296 | 374 | 513
318.15 K | 2.74 | 7.85 | – | 32.1 | – | 86.9 | 142.8 | 223 | 279 | –
323.15 K | 2.51 | – | 14.75 | 26.7 | – | 69.4 | – | 171 | 212 | –
